According to patent publication US6455593B1, “Method of dynamic retardation of cell cycle kinetics to potentiate cell damage” (priority 1995, dated 2002):
Read-outs that look alike come from different tables or passages of the source.

Experiments:
[1] = continuous infusion, minimal toxicity; cited from earlier work
p. falciparum W2 = experiment: Parasite growth by 3H-hypoxanthine uptake in infected erythrocytes; type: cell-based; settings: Plasmodium falciparum, W2, Erythrocyte, read-out: inhibitory concentrations (IC50), strain W2
[2] = tested on: human promonocytic lymphoma cells (U937); experiment: Microculture indicator system (MIS), MTT growth inhibition assay with bivariate serial dilutions; type: cell-based; settings: for inhibition at 0.01 µg/mL / inhibition at 0.02 µg/mL / inhibition at 0.03 µg/mL / inhibition at 0.06 µg/mL / inhibition at 0.5 µg/mL / inhibition at 1 µg/mL / inhibition at 2 µg/mL / inhibition at 4 µg/mL: Homo sapiens
How it was run: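 U937 human promonocytic lymphoma cells were tested in flat-bottom 96-well plates. Two agents were each diluted two-fold by serial mixing, then combined into bivariate dilution series before about 1×10^5 cells per well were added in RPMI 1640 with 10% Nurserum and antibiotics, 100 μl per well. Plates were incubated at 37° C. Thirty μl of 0.5% MTT was then added for 3 hr. Formazan was dissolved overnight with 120 μl of 10 % SDS/0.01 N HCl and absorbance was read at 570 nm against a cell-free blank.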

U937 cells = experiment: DNA gel electrophoresis for DNA fragmentation (apoptosis); type: cell-based, human; settings: 50 nM STSP, 8 hours, U937
Protocol: Samples of the U937 cells were exposed to a series of concentrations of dThd for 24 hr. Their DNA was isolated by lysis of cell samples in TE buffer containing TRIS 10 mM, EDTA 10 mM, SDS 0.5% and proteinase K 200 μg/ml at […] for 2 h. The proteins were precipitated in a IM solution of NaCl and centrifuged at 2,500×g for 30 min at […] DNAse free RNase (25 μg/ml) was added to the supernatant and incubated for 30 min at 37° C. Spectrophotometric quantitation of the DNA in the supernatant was quantitated by absorbance spectrophotometry at 260 nm. Volumes adjusted to contain equal amounts of DNA were mixed with a loading buffer of 40% (w/v) sucrose, 0.1M EDTA pH 8.0, 0.5% (w/v) sodium lauryl sulphate and 0.05% (w/v) bromophenol blue. […] Separated bands of DNA were stained with ethidium bromide and photographed in UV light (Fotodyne Inc.). […] The lowest molecular weight (about 180 bp) was determined with a standard 123 bp ladder from Sigma Chemical Co. (Cat. #D5042). The result shown is a classical “DNA ladder,” characteristic of the fragmentation of DNA macromolecules in apoptosis. See Tomei, supra; Obeid, supra; Gold, supra.

C[C@@]1(CO)[C@H](O)CC[C@@]2(C)[C@H]1CC[C@H]1C[C@@H]3C[C@@]12CC[C@]3(O)CO [Aph, aphidicolin]
Peak plasma levels [1]: 3 µg/mL | IC50 (p. falciparum W2; 24 hr after RBC infection, 3H-hypoxanthine uptake): 123 nM | inhibition at 0.01 µg/mL ([2]; U-937, 4 h, U937, Aph 0.01 ug/ml 4 H, K252a 0, read-out: MTT % inhibition, Aph only): 5% | inhibition at 0.02 µg/mL ([2]; U-937, 4 h, U937, Aph 0.02 ug/ml 4 H, K252a 0, read-out: MTT % inhibition, Aph only): 0% | inhibition at 0.03 µg/mL ([2]; U-937, 4 h, U937, Aph 0.03 ug/ml 4 H, K252a 0, read-out: MTT % inhibition, Aph only): 1% | inhibition at 0.06 µg/mL ([2]; U-937, 4 h, U937, Aph 0.06 ug/ml 4 H, K252a 0, read-out: MTT % inhibition, Aph only): 14% | inhibition at 0.5 µg/mL ([2]; U-937, 4 h, U937, Aph 0.50 ug/ml 4 H, K252a 0, read-out: MTT % inhibition, Aph only): 9% | inhibition at 1 µg/mL ([2]; U-937, 4 h, U937, Aph 1.00 ug/ml 4 H, K252a 0, read-out: MTT % inhibition, Aph only): 14% | inhibition at 2 µg/mL ([2]; U-937, 4 h, U937, Aph 2.00 ug/ml 4 H, K252a 0, read-out: MTT % inhibition, Aph only): 24% | inhibition at 4 µg/mL ([2]; U-937, 4 h, U937, Aph 4.00 ug/ml 4 H, K252a 0, read-out: MTT % inhibition, Aph only): 38% | inhibition at 0.01 µg/mL ([2]; U-937, U937, total 18 H, STSP 14 H, Aph 4 H, Aph 0.01 ug/ml, STSP nM by row: r7 100, r8 50, r9 25, r10 12.5, r11 6.25, r12 3.13, r13-r14 0, read-out: Growth inhibition (MTT)): 1% | inhibition at 0.02 µg/mL ([2]; U-937, U937, total 18 H, STSP 14 H, Aph 4 H, Aph 0.02 ug/ml, STSP nM by row: r7 100, r8 50, r9 25, r10 12.5, r11 6.25, r12 3.13, r13-r14 0, read-out: Growth inhibition (MTT)): 7% | inhibition at 0.03 µg/mL ([2]; U-937, U937, total 18 H, STSP 14 H, Aph 4 H, Aph 0.03 ug/ml, STSP nM by row: r7 100, r8 50, r9 25, r10 12.5, r11 6.25, r12 3.13, r13-r14 0, read-out: Growth inhibition (MTT)): 6% | inhibition at 0.06 µg/mL ([2]; U-937, U937, total 18 H, STSP 14 H, Aph 4 H, Aph 0.06 ug/ml, STSP nM by row: r7 100, r8 50, r9 25, r10 12.5, r11 6.25, r12 3.13, r13-r14 0, read-out: Growth inhibition (MTT)): 9% | inhibition at 0.5 µg/mL ([2]; U-937, U937, total 18 H, STSP 14 H, Aph 4 H, Aph 0.50 ug/ml, STSP nM by row: r7 100, r8 50, r9 25, r10 12.5, r11 6.25, r12 3.13, r13-r14 0, read-out: Growth inhibition (MTT)): 21% | inhibition at 1 µg/mL ([2]; U-937, U937, total 18 H, STSP 14 H, Aph 4 H, Aph 1.00 ug/ml, STSP nM by row: r7 100, r8 50, r9 25, r10 12.5, r11 6.25, r12 3.13, r13-r14 0, read-out: Growth inhibition (MTT)): 22% | inhibition at 2 µg/mL ([2]; U-937, U937, total 18 H, STSP 14 H, Aph 4 H, Aph 2.00 ug/ml, STSP nM by row: r7 100, r8 50, r9 25, r10 12.5, r11 6.25, r12 3.13, r13-r14 0, read-out: Growth inhibition (MTT)): 31% | inhibition at 4 µg/mL ([2]; U-937, U937, total 18 H, STSP 14 H, Aph 4 H, Aph 4.00 ug/ml, STSP nM by row: r7 100, r8 50, r9 25, r10 12.5, r11 6.25, r12 3.13, r13-r14 0, read-out: Growth inhibition (MTT)): 30% | Potentiation of DNA damage by STSP as RA ([2]; U937, concentrations less than IC40, STSP as the TCI): proved successful in potentiating DNA damage by STSP | combined results ratio, Aph only (baseline line) ([2]; U937, Aph alone, every Aph concentration 4.00-0.01 ug/ml): 1.0 | Combined results ratio ([2]; U937, total 18 H, STSP 14 H, Aph 4 H, Aph 0.01 ug/ml, STSP nM by row: r7 100, r8 50, r9 25, r10 12.5, r11 6.25, r12 3.13, r13-r14 0): 1.0 | Combined results ratio ([2]; U937, total 18 H, STSP 14 H, Aph 4 H, Aph 0.02 ug/ml, STSP nM by row: r7 100, r8 50, r9 25, r10 12.5, r11 6.25, r12 3.13, r13-r14 0): 1.0 | Combined results ratio ([2]; U937, total 18 H, STSP 14 H, Aph 4 H, Aph 0.03 ug/ml, STSP nM by row: r7 100, r8 50, r9 25, r10 12.5, r11 6.25, r12 3.13, r13-r14 0): 1.0 | Combined results ratio ([2]; U937, total 18 H, STSP 14 H, Aph 4 H, Aph 0.06 ug/ml, STSP nM by row: r7 100, r8 50, r9 25, r10 12.5, r11 6.25, r12 3.13, r13-r14 0): 1.0 | Combined results ratio ([2]; U937, total 18 H, STSP 14 H, Aph 4 H, Aph 0.50 ug/ml, STSP nM by row: r7 100, r8 50, r9 25, r10 12.5, r11 6.25, r12 3.13, r13-r14 0): 1.0 | Combined results ratio ([2]; U937, total 18 H, STSP 14 H, Aph 4 H, Aph 1.00 ug/ml, STSP nM by row: r7 100, r8 50, r9 25, r10 12.5, r11 6.25, r12 3.13, r13-r14 0): 1.0 | Combined results ratio ([2]; U937, total 18 H, STSP 14 H, Aph 4 H, Aph 2.00 ug/ml, STSP nM by row: r7 100, r8 50, r9 25, r10 12.5, r11 6.25, r12 3.13, r13-r14 0): 1.0 | Combined results ratio ([2]; U937, total 18 H, STSP 14 H, Aph 4 H, Aph 4.00 ug/ml, STSP nM by row: r7 100, r8 50, r9 25, r10 12.5, r11 6.25, r12 3.13, r13-r14 0): 1.0

CN[C@@H]1C[C@H]2O[C@@](C)([C@@H]1OC)n1c3ccccc3c3c4c(c5c6ccccc6n2c5c31)C(=O)NC4 [STSP, staurosporine]
IC50 (p. falciparum W2): 150 nM | DNA ladder pattern fragmentation (U937 cells): DNA fragmentation in U937 cells in 8 hours
